According to ChEMBL document CHEMBL1201862, “PubChem BioAssay data set” (2004):
Active and inactive are the calls of the source.

Tests used:
[1] = biological target: T1, Protein disulfide-isomerase (Homo sapiens, UniProt P07237); test: inhibition of PDI-driven insulin aggregation – biochemical, turbidity, absorbance, cherry-picked samples, dose response (AID 602350); type: functional
[2] = biological target: T1, Protein disulfide-isomerase; test: inhibition of PDI-mediated insulin reduction – biochemical, turbidity, absorbance, cherry-picked samples, set 2, dose response (AID 624274); type: functional
Vero = test: viability loss in Vero cells – cell-based, plate reader, cherry-pick samples, cytotoxicity control, dose response (AID 687020); type: functional; conditions: Chlorocebus sabaeus
Caspase-6 = biological target: T2, Caspase-6 (Homo sapiens, UniProt P55212); test: inhibition of CASP6 peptide cleavage – biochemical, VEID-R110 fluorescence, cherry-pick, dose response (AID 720632)
T2 sequence (P55212 whole entry): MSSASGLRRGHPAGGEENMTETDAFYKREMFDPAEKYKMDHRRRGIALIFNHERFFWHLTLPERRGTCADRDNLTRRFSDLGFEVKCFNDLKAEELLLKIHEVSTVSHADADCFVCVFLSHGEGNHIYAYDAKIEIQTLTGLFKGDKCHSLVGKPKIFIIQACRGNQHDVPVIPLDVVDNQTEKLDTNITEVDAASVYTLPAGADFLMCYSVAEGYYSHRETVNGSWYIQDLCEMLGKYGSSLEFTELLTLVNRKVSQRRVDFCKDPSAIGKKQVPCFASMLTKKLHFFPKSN

[3] = MITF: Counter assay: A375 proliferation Measured in Cell-Based System Using Plate Reader - 2084-03_Inhibitor_Dose_DryPowder_Activity_Set8.; type: functional; conditions: A-375
[4] = MITF Orthogonal Assay: SK-MEL-5 CTG Assay Measured in Cell-Based System Using Plate Reader - 2084-02_Inhibitor_Dose_DryPowder_Activity_Set7.; type: functional
[5] = inhibitors of TRPM1-promoter reporter in SK-MEL-5 – cell-based, luciferase, dry powder, set 8, MITF inhibitor project, dose response (AID 624430); type: functional
[6] = A Cell-Based Confirmatory Screen for Compounds that Inhibit VEEV, TC-83 (8).; type: functional
[7] = biological target: T3, Oxysterols receptor LXR-beta (Homo sapiens, UniProt P55055); type: functional, cell-based;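 also: agonist activity at LXR measured by a cell-based luminescence readout across a dose range, run as a counterscreen for daf-12 agonists; HEK293 cells with Gal4-LXR fusion and GAL4-driven luciferase reporter; potency for activation of Gal4-LXR reporter so compounds are agonists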
T3 sequence (P55055 whole entry): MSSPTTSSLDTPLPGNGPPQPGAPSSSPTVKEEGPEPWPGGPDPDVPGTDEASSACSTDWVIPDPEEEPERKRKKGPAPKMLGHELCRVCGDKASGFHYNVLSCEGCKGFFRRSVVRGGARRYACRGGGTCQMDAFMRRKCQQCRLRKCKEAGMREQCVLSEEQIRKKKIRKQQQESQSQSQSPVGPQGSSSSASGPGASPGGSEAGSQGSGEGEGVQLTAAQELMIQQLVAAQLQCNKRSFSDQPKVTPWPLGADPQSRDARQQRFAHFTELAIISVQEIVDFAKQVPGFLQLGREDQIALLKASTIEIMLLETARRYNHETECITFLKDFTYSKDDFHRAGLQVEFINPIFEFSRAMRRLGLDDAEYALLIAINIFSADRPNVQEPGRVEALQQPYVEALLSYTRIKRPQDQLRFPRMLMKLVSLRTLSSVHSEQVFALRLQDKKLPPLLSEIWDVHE

[8] = biological target: Long-chain-fatty-acid--AMP ligase FadD28 (Mycobacterium tuberculosis, UniProt P9WQ59); test: Fluorescence polarization aasay to screen for inhibitors that compete for the binding of FadD28 to a bisubstrate Measured in Biochemical System Using Plate Reader - 2147-01_Inhibitor_Dose_CherryPick_Activity.; type: functional, Mycobacterium tuberculosis H37Rv
Chain of Long-chain-fatty-acid--AMP ligase FadD28 (P9WQ59 whole entry): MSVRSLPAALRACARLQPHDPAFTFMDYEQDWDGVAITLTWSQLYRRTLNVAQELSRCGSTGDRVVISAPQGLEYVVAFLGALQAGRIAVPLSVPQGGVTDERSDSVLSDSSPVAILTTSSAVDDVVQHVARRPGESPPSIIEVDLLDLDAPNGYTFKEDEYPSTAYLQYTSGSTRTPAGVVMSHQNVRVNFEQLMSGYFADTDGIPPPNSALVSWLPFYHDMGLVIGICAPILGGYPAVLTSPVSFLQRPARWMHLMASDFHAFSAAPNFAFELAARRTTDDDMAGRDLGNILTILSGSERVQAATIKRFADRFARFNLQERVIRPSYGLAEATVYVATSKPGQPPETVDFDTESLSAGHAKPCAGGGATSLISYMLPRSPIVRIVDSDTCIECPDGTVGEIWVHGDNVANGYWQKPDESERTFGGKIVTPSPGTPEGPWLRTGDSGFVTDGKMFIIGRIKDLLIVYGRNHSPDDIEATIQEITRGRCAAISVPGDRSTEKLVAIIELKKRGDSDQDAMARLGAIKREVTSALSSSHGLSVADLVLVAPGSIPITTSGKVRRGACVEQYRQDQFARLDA

[9] = T. cruzi growth inhibition in host cells, dose response, cell-based, plate reader, dry powder, set 2 (AID 652275); type: functional
Beta-lactamase [10] = biological target: T4, Beta-lactamase (Pseudomonas aeruginosa, UniProt Q79MP6); test: inhibition of IMP-1 beta-lactamase activity – biochemical, epi-absorbance, selectivity assay for VIM-2 inhibitor project, dose response (AID 1920)
T4 sequence (Q79MP6 whole entry): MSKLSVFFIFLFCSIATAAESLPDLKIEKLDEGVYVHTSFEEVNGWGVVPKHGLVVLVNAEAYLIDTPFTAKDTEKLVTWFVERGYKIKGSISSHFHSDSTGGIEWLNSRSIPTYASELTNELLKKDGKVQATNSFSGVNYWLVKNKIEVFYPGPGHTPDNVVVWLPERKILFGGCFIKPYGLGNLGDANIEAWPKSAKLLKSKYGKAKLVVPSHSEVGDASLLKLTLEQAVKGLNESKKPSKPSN

Beta-lactamase [11] = biological target: Beta-lactamase (Salmonella choleraesuis (strain SC-B67), UniProt Q5J463); test: Epi-absorbance-based counterscreen for selective VIM-2 inhibitors: dose response biochemical high throughput screening assay to identify inhibitors of TEM-1 serine-beta-lactamase.
Chain of Beta-lactamase (Salmonella choleraesuis (strain SC-B67), UniProt Q5J463) (Q5J463 whole entry): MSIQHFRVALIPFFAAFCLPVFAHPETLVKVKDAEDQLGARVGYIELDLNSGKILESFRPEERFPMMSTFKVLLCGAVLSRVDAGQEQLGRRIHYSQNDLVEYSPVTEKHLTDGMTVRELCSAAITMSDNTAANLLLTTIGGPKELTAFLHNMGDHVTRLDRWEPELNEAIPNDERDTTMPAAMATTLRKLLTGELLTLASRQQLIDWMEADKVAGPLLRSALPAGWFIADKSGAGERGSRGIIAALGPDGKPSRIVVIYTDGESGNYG

Beta-lactamase [12] = biological target: T4, Beta-lactamase; test: […] counterscreen for selective VIM-2 inhibitors: dose response biochemical high throughput screening assay to identify inhibitors of IMP-1 metallo-beta-lactamase.
[13] = biological target: T5, Probable nicotinate-nucleotide adenylyltransferase (Staphylococcus aureus (strain N315), UniProt P65502); type: functional, Staphylococcus aureus subsp. aureus N315;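 as to IC50 Mean: confirmatory dose-response retesting of NadD inhibitor hits first found in an ultra-high-throughput screen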
T5 sequence (P65502 whole entry): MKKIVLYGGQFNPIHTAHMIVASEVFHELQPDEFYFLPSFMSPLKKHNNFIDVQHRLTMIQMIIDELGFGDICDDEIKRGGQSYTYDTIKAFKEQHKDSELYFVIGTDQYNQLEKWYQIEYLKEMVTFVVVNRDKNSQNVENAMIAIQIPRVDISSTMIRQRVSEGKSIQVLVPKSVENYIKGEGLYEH

[14] = biological target: T5, Probable nicotinate-nucleotide adenylyltransferase; type: functional, Staphylococcus aureus subsp. aureus N315; conditions: read-out: IC50_Mean

T1 sequence (P07237 whole entry): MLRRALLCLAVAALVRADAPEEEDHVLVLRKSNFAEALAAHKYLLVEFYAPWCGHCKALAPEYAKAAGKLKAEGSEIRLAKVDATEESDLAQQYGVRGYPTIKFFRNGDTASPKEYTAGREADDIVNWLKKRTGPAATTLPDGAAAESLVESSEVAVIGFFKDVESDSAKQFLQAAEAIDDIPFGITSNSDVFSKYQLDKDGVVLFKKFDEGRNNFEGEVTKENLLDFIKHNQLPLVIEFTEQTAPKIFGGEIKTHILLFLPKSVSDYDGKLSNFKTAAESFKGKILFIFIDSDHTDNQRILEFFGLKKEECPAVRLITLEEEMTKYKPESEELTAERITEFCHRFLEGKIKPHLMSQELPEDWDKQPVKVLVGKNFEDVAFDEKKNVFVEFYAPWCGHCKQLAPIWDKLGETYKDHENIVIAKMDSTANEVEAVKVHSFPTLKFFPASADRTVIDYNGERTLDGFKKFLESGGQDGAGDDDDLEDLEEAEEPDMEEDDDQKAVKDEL

With `CC(C)N(C)C(=O)CCc1nnc(CCc2c[nH]c3ccccc23)o1` the AC50 [1] was < 0.009 µM (active) and the AC50 [2] was 0.009 µM (active).

With `Cc1c(C(=O)N2CCCC2)oc2ccc(Br)cc12` the AC50 (Vero) was 35.1 µM (active) and the AC50 (Caspase-6) was 23.5 µM (active).

With `CCN1CCN(C2=C(Nc3ccc(F)cc3)C(=O)c3ccccc3C2=O)CC1` the AC50 [3] was > 70 µM (inactive), the AC50 [4] was 11.9 µM (active) and the AC50 [5] was 3.49 µM (active).

With `CCN1CCN(Cc2nc3ncc([N+](=O)[O-])cc3c(=O)n2-c2ccccc2)CC1` the IC50 [6] was 0.832 µM (active).

In the case of `Cc1cc(NC(=O)c2nn3cccnc3c2Cl)no1`, the EC50 [7] was > 67.5 µM (inactive).

With `Cc1ccc(NC(S)=NNc2ccc(C(=O)O)cc2[N+](=O)[O-])cc1C` the AC50 [8] was > 100 µM (inactive).

With `CC(C)N1C[C@@H](CN(C)Cc2ccc(Cl)cc2)Oc2c(NC(=O)c3ccnnc3)cccc2C1=O` the AC50 [9] was 0.198 µM (active).

In the case of `Sc1nnc(-c2ccccc2)n1Cc1ccccc1`, the IC50 (Beta-lactamase [10]) was > 59.6 µM (inactive), the IC50 (Beta-lactamase [11]) was > 59.6 µM (inactive) and the IC50 (Beta-lactamase [12]) was > 59.6 µM (inactive).

For `CCOC(=O)C1=C(C)c2ccccc2N(C(=O)OC)C1(C)C(=O)OCC` (stereo unspecified), the IC50 [13] was 15.6 µM (active) and the IC50 [14] was 34.6 µM (active).
